From ChEMBL document CHEMBL3045872, “The Design and Synthesis of a Novel, Orally Active, Selective ETA Antagonist” (Med Chem Res, 2004)

Key:
[1] = Permeability of the compound across Homo sapiens (human) Caco2 cells; type: ADME, cell-based; details: Caco-2, read-out: permeability
[2] = biological target: T1, Endothelin-1 receptor (Homo sapiens, UniProt P25101); experiment: Displacement of [I125]ET1 from Homo sapiens (human) ETA receptor expressed in CHO cells; type: cell-based
T1 sequence (P25101 whole entry): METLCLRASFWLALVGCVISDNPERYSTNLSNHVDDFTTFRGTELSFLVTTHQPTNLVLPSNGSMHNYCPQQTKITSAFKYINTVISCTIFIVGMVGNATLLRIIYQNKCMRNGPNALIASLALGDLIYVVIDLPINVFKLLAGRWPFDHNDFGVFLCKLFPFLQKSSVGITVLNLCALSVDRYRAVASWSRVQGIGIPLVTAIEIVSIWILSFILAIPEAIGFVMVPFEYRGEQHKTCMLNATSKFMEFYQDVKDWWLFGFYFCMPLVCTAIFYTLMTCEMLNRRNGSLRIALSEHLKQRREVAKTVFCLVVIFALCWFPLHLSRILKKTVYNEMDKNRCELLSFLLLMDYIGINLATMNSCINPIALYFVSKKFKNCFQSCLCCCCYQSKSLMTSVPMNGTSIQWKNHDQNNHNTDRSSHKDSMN

[3] = Fraction unbound in Rattus norvegicus Sprague-Dawley (rat) at 2 mg/kg, iv; type: ADME, organism-based; set-up: dose 2 mg/kg, route intravenous; details: in vivo
[4] = test system: Rattus norvegicus; experiment: Unbound clearance in Rattus norvegicus Sprague-Dawley (rat) at 2 mg/kg, iv; type: ADME, organism-based; set-up: dose 2 mg/kg, route intravenous; details: in vivo
[5] = Volume of distribution in Rattus norvegicus Sprague-Dawley (rat) at 2 mg/kg, iv; type: ADME, organism-based; set-up: dose 2 mg/kg, route intravenous; details: in vivo
[6] = biological target: T2, Endothelin receptor type B (Homo sapiens, UniProt P24530); experiment: Displacement of [I125]ET1 from Homo sapiens (human) ETB receptor expressed in CHO cells; type: cell-based
T2 sequence (P24530 whole entry): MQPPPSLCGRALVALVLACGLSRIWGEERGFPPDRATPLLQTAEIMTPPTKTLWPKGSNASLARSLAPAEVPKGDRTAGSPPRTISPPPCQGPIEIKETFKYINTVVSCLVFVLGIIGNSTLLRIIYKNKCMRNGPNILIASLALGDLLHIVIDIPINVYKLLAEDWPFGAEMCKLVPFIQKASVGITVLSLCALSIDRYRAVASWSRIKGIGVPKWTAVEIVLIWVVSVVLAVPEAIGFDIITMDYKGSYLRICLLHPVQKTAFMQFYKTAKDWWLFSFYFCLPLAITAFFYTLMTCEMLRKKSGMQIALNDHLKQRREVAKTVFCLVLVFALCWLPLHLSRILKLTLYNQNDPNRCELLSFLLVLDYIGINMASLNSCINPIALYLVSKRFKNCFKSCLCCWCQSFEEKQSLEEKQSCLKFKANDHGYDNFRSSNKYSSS

[7] = Inhibition of endothelin converting enzyme (unknown origin); set-up: species or system Homo sapiens
[8] = Drug absorption in Rattus norvegicus Sprague-Dawley (rat) at 2 mg/kg, iv; type: ADME, organism-based; set-up: dose 2 mg/kg, route intravenous; details: in vivo, read-out: Drug absorption
[9] = test system: Rattus norvegicus; experiment: Prodrug conversion in Rattus norvegicus (rat) assessed as (S)-3-(1-(benzo[d][1,3]dioxol-5-yl)-2-(2-methoxy-4-methylphenylsulfonamido)-2-oxoethyl)-1-methyl-1H-indole-6-carboxylic acid level at 2 mg/kg, po; type: ADME, organism-based; set-up: dose 2 mg/kg, route oral; details: in vivo
[10] = Half life in Canis lupus familiaris (dog) liver microsome at 1 uM; type: ADME; details: liver microsomes
[11] = test system: Canis familiaris; experiment: Cardiotoxicity in Canis lupus familiaris (dog) assessed as change in ECG at 1.5 to 15 mg/kg, po; type: toxicity, organism-based; set-up: dose 1.5-15 mg/kg, route oral; details: in vivo
[12] = Half life in Homo sapiens (human) liver microsome at 1 uM; type: ADME; details: liver microsomes
[13] = test system: Rattus norvegicus; experiment: Prodrug conversion in Rattus norvegicus (rat) assessed as (S)-3-(1-(benzo[d][1,3]dioxol-5-yl)-2-(2-methoxy-4-methylphenylsulfonamido)-2-oxoethyl)-1-methyl-1H-indole-6-carboxylic acid level at 2 mg/kg, iv; type: ADME, organism-based; set-up: dose 2 mg/kg, route intravenous; details: in vivo
[14] = test system: Liver cytosol; experiment: Prodrug conversion in Sus scrofa (pig) liver cytosol assessed as (S)-3-(1-(benzo[d][1,3]dioxol-5-yl)-2-(2-methoxy-4-methylphenylsulfonamido)-2-oxoethyl)-1-methyl-1H-indole-6-carboxylic acid formation; type: ADME, tissue-based
[15] = test system: Rattus norvegicus; experiment: Tmax in Rattus norvegicus (rat) assessed as (S)-3-(1-(benzo[d][1,3]dioxol-5-yl)-2-(2-methoxy-4-methylphenylsulfonamido)-2-oxoethyl)-1-methyl-1H-indole-6-carboxylic acid level at 2 mg/kg, po; type: ADME, organism-based; set-up: dose 2 mg/kg, route oral; details: in vivo
[16] = test system: Canis familiaris; experiment: Cardiotoxicity in Canis lupus familiaris (dog) assessed as change in left ventricular contractility at 1.5 to 15 mg/kg, po; type: toxicity, organism-based, Heart left ventricle; set-up: dose 1.5-15 mg/kg, route oral; details: in vivo
[17] = test system: Canis familiaris; experiment: Cardiotoxicity in Canis lupus familiaris (dog) assessed as change in heart rate at 1.5 to 15 mg/kg, po; type: toxicity, organism-based; set-up: dose 1.5-15 mg/kg, route oral; details: in vivo
[18] = Elimination half life in Rattus norvegicus (rat) at 2 mg/kg, iv; type: ADME, organism-based; set-up: dose 2 mg/kg, route intravenous; details: in vivo, read-out: beta t1/2 (converted)
[19] = test system: Liver cytosol; experiment: Prodrug conversion in male Rattus norvegicus (rat) liver cytosol assessed as (S)-3-(1-(benzo[d][1,3]dioxol-5-yl)-2-(2-methoxy-4-methylphenylsulfonamido)-2-oxoethyl)-1-methyl-1H-indole-6-carboxylic acid formation; type: ADME, tissue-based
[20] = Volume of distribution in Rattus norvegicus (rat) at 2 mg/kg, iv; type: ADME, organism-based; set-up: dose 2 mg/kg, route intravenous; details: in vivo
[21] = test system: Liver cytosol; experiment: Prodrug conversion in Homo sapiens (human) liver cytosol assessed as (S)-3-(1-(benzo[d][1,3]dioxol-5-yl)-2-(2-methoxy-4-methylphenylsulfonamido)-2-oxoethyl)-1-methyl-1H-indole-6-carboxylic acid formation; type: ADME, tissue-based
[22] = Half life in Rattus norvegicus (rat) liver microsome at 1 uM; type: ADME; details: liver microsomes
[23] = test system: Rattus norvegicus; experiment: Apparent elimination half life in Rattus norvegicus (rat) assessed as (S)-3-(1-(benzo[d][1,3]dioxol-5-yl)-2-(2-methoxy-4-methylphenylsulfonamido)-2-oxoethyl)-1-methyl-1H-indole-6-carboxylic acid level at 2 mg/kg, po; type: ADME, organism-based; set-up: dose 2 mg/kg, route oral; details: in vivo
[24] = Cmax in Rattus norvegicus (rat) at 2 mg/kg, po; type: ADME, organism-based; set-up: dose 2 mg/kg, route oral; details: in vivo
[25] = Plasma clearance in Rattus norvegicus (rat) at 2 mg/kg, iv; type: ADME, organism-based; set-up: dose 2 mg/kg, route intravenous
[26] = test system: Rattus norvegicus; experiment: Drug absorption in Rattus norvegicus (rat) assessed as (S)-3-(1-(benzo[d][1,3]dioxol-5-yl)-2-(2-methoxy-4-methylphenylsulfonamido)-2-oxoethyl)-1-methyl-1H-indole-6-carboxylic acid level at 2 mg/kg; type: ADME, organism-based; set-up: dose 2 mg/kg; details: in vivo
[27] = test system: Rattus norvegicus; experiment: Toxicity in Rattus norvegicus (rat) at 30 mg/kg, po QD for 5 days; type: organism-based; set-up: dose 30 mg/kg, route oral; details: in vivo, 120 h
[28] = Tmax in Rattus norvegicus (rat) at 2 mg/kg, po; type: ADME, organism-based; set-up: dose 2 mg/kg, route oral; details: in vivo
[29] = test system: Rattus norvegicus; experiment: Cmax in Rattus norvegicus (rat) assessed as (S)-3-(1-(benzo[d][1,3]dioxol-5-yl)-2-(2-methoxy-4-methylphenylsulfonamido)-2-oxoethyl)-1-methyl-1H-indole-6-carboxylic acid level at 2 mg/kg, po; type: ADME, organism-based; set-up: dose 2 mg/kg, route oral; details: in vivo

## COc1cc(C)ccc1S(=O)(=O)NC(=O)C(c1ccc2c(c1)OCO2)c1cn(C)c2cc(C#N)ccc12 (racemic)
[1]
  Papp: 20 ×10⁻⁶ cm/s
[2]
  IC50: 11 nM
[3]
  Fu: 0.002%
[4]
  CL free: 19000 mL/min/kg
[5]
  Vd: 2.8 L/kg
[6]
  IC50: 421 nM

## Cc1ccc(S(=O)(=O)NC(=O)C(c2ccc3c(c2)OCO3)c2cn(C)c3cc(CO)ccc23)cc1 (racemic)
[2]
  IC50: 34 nM

## CCn1cc(C(C(=O)NS(=O)(=O)c2ccc(C(C)C)cc2)c2ccc3c(c2)OCO3)c2ccccc21 (racemic)
[2]
  IC50: 560 nM

## COc1cc(C)ccc1S(=O)(=O)NC(=O)[C@@H](c1ccc2c(c1)OCO2)c1cn(C)c2cc(C(=O)O)ccc12
[7]
  IC50: 325000 nM
[2]
  IC50: 4.2 nM
[6]
  IC50: 347 nM
  Ki: 1460 nM

## CCn1cc(C(C(=O)NS(=O)(=O)c2ccc(C(C)C)cc2)c2ccc3c(c2)OCO3)c2ccc(C(=O)O)cc21 (racemic)
[6]
  IC50: 69 nM

## COc1cc(C)ccc1S(=O)(=O)NC(=O)C(c1ccc2c(c1)OCO2)c1cn(C)c2cc(Cl)ccc12 (racemic)
[2]
  IC50: 46 nM
[6]
  IC50: 217 nM

## Cn1cc(C(C(=O)NS(=O)(=O)c2ccc(CC(=O)O)cc2)c2ccc3c(c2)OCO3)c2ccc(C(N)=O)cc21 (racemic)
[1]
  Papp: < 0.5 ×10⁻⁶ cm/s
[2]
  IC50: 1.7 nM
[3]
  Fu: 0.048%
[8]
  Fa: < 5%
[4]
  CL free: 138 mL/min/kg
[5]
  Vd: 0.3 L/kg
[6]
  IC50: 574 nM

## COCc1ccc2c(C(C(=O)NS(=O)(=O)c3ccc(C)cc3OC)c3ccc4c(c3)OCO4)cn(C)c2c1 (racemic)
[2]
  IC50: 8.8 nM
[6]
  IC50: 1140 nM

## COc1cc(C)ccc1S(=O)(=O)NC(=O)C(c1ccc2c(c1)OCO2)c1cn(C)c2cc(C(N)=O)ccc12 (racemic)
[1]
  Papp: 1.6 ×10⁻⁶ cm/s
[3]
  Fu: 0.007%
[8]
  Fa: < 5%
[4]
  CL free: 1329 mL/min/kg
[5]
  Vd: 0.6 L/kg
[6]
  IC50: 275 nM

## COc1cc(C)ccc1S(=O)(=O)NC(=O)C(c1ccc2c(c1)OCO2)c1cn(C)c2cc(C(C)=O)ccc12 (racemic)
[1]
  Papp: 20 ×10⁻⁶ cm/s
[2]
  IC50: 1.4 nM
[3]
  Fu: 0.002%
[8]
  Fa: 70%
[4]
  CL free: 17000 mL/min/kg
[5]
  Vd: 5 L/kg
[6]
  IC50: 906 nM

## COc1cc(C)ccc1S(=O)(=O)NC(=O)[C@@H](c1ccc2c(c1)OCO2)c1cn(C)c2cc(CO)ccc12
[9]
  Drug metabolism: Active
[10]
  half-life at 1 µM: > 2 h
[11]
  Activity: Non-toxic
[7]
  IC50: 765000 nM
[12]
  half-life at 1 µM: > 2 h
[2]
  IC50: 2.2 nM
  Ki: 2.2 nM
[13]
  Drug metabolism: Active
[14]
  Drug metabolism: Active
[15]
  Tmax: 4 h
[16]
  Activity: Non-toxic
[17]
  Activity: Non-toxic
[18]
  half-life: 1.1 h
[19]
  Drug metabolism: Active
[20]
  Vd: 0.16 L/kg
[21]
  Drug metabolism: Active
[22]
  half-life at 1 µM: > 2 h
[23]
  betat1/2(app): 9 h
[24]
  Cmax: 48 ng/mL
[25]
  clearance: 1.7 mL/min/kg
[26]
  Drug absorption: 36%
[27]
  Activity: Non-toxic
[6]
  IC50: 683 nM
  Ki: 1500 nM
[28]
  Tmax: 0.25 h
[29]
  Cmax: 83 ng/mL

## COc1cc(C)ccc1S(=O)(=O)NC(=O)C(c1ccc2c(c1)OCO2)c1cn(C)c2cc(F)ccc12 (racemic)
[1]
  Papp: 5 ×10⁻⁶ cm/s
[2]
  IC50: 14 nM
[3]
  Fu: 0.005%
[8]
  Fa: 100%
[4]
  CL free: 1740 mL/min/kg
[5]
  Vd: 4 L/kg
[6]
  IC50: 219 nM

## COc1cc(C)ccc1S(=O)(=O)NC(=O)C(c1ccc2c(c1)OCO2)c1cn(C)c2cc(CO)ccc12 (configuration not stated)
[1]
  Papp: 1.2 ×10⁻⁶ cm/s
[2]
  IC50: 8.7 nM
[3]
  Fu: 0.01%
[8]
  Fa: 55%
[4]
  CL free: 7200 mL/min/kg
[5]
  Vd: 1.2 L/kg
[6]
  IC50: 245 nM

## CCOC(=O)c1ccc2c(C(C(=O)NS(=O)(=O)c3ccc(C)cc3OC)c3ccc4c(c3)OCO4)cn(C)c2c1 (racemic)
[2]
  IC50: 18 nM
[6]
  IC50: 240 nM

## COc1cc(C)ccc1S(=O)(=O)NC(=O)C(c1ccc2c(c1)OCO2)c1cn(C)c2cc(C(=O)O)ccc12 (racemic)
[1]
  Papp: < 0.5 ×10⁻⁶ cm/s
[2]
  IC50: 5.3 nM
[3]
  Fu: 0.01%
[8]
  Fa: < 5%
[4]
  CL free: 609 mL/min/kg
[5]
  Vd: 0.6 L/kg
[6]
  IC50: 650 nM

## CC(C)c1ccc(S(=O)(=O)NC(=O)C(c2ccc3c(c2)OCO3)c2cn(C)c3cc(C(N)=O)ccc23)cc1 (racemic)
[6]
  IC50: 15 nM
